From ChEMBL document CHEMBL1201862, “PubChem BioAssay data set” (2004)
Activity calls are given as the source filed them.

Legend:
[1] = Luminescence Cell-Based Dose Confirmation to Identify Activators of 5'UTR Stem-Loop Driven Alpha-Synuclein mRNA Translation in H4 Neuroglioblastoma Cells. [Related pubchem assays: 1829 (Project Summary), 1814 (Primary HTS)]; type: functional
H4 = test: Luminescence Cell-Based Dose Response HTS to Identify Activators of 5'UTR Stem-Loop Driven Prion Protein mRNA Translation in H4 Neuroglioblastoma Cells. [Related pubchem assays: 1829 (Project Summary), 1814 (Primary HTS)]; type: functional; settings: Homo sapiens
[2] = Luminescence Cell-Based Dose Response to Identify Activators of 5'UTR Stem-Loop Driven Prion Protein mRNA Translation in H4-C Neuroglioblastoma Cells. [Related pubchem assays: 1829 (Project Summary), 1814 (Primary HTS)]; type: functional
[3] = Luminescence Cell-Based Dose Response HTS to Identify Activators of Luciferase Translation or Activity in H4 […] Cells. [Related pubchem assays: 1829 (Project Summary), 1814 (Primary HTS)]; type: functional
[4] = Luminescence Cell-Based Dose Response to Identify Activators of Luciferase Translation or Activity in H4-C Neuroglioblastoma Cells. [Related pubchem assays: 1829 (Project Summary), 1814 (Primary HTS)]; type: functional
[5] = growth inhibition of yeast DHODH-expressing 3D7 parasites – SYBR Green, dry powder samples, dose response (AID 1159570); type: functional, cell-based;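 also: parasite growth measured after 72 hours of compound exposure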
[6] = Dd2 parasite growth inhibition in erythrocytes – SYBR Green, dry powder samples, set 9, dose response (AID 1159568); type: functional, cell-based
[7] = Dd2 malaria parasite growth inhibition potency – SYBR Green, dry powder samples, dose response (AID 1159566); type: functional, cell-based;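 also: potency for growth inhibition with lower SYBR green DNA signal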
[8] = growth inhibition of PfATP4-mutant resistant parasites – NITD609-resistant line, SYBR Green, dry powder, dose response (AID 1159571); type: functional, cell-based;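 also: parasites synchronized at ring stage by sorbitol before testing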
[9] = P. falciparum Dd2 growth inhibitors, dose response, SYBR Green, cherry-picked samples (AID 1159567); type: functional, cell-based
[10] = molecular target: Induced myeloid leukemia cell differentiation protein Mcl-1 (Homo sapiens, UniProt Q07820); test: blockers of MCL1 binding to BIM peptide – biochemical, fluorescence polarization, BIM-BH3 peptide, 1536-well, dose response (AID 2217)
Bcl-2-like protein 1 = Bcl-2-like protein 1 (Homo sapiens, UniProt Q07817); test: blockers of BCLXL peptide binding – biochemical, fluorescence polarization, 1536-well, selectivity assay for MCL1 inhibitor project, dose response (AID 2218)
[11] = molecular target: 72 kDa type IV collagenase (Homo sapiens, UniProt P08253); test: Dose Response validation of uHTS RPN11 inhibitor hits using a MMP-2 Fluorescence assay.; type: functional
[12] = molecular target: 26S proteasome non-ATPase regulatory subunit 14 (Homo sapiens, UniProt O00487); test: inhibition of proteasome subunit RPN11 – biochemical, fluorescence polarization, uHTS hits, confirmation (AID 602368); type: functional
Prothrombin = Prothrombin (Bos taurus, UniProt P00735); test: thrombin protease inhibitors – biochemical, fluorescence polarization, uHTS hits, dose response (AID 602369); type: functional
[13] = viability loss in THP-1 monocytes – THP-1 cells, cytotoxicity control for Vif-APOBEC3G degradation inhibitor project, dose response (AID 1117359); type: functional; settings: THP-1
[14] = molecular target: T1, Zinc finger protein mex-5 (Caenorhabditis elegans, UniProt Q9XUB2); test: potency of MEX-5 RNA-binding blockers – biochemical, C. elegans, fluorescence polarization, dose response (AID 1960)
T1 sequence (Q9XUB2 whole entry): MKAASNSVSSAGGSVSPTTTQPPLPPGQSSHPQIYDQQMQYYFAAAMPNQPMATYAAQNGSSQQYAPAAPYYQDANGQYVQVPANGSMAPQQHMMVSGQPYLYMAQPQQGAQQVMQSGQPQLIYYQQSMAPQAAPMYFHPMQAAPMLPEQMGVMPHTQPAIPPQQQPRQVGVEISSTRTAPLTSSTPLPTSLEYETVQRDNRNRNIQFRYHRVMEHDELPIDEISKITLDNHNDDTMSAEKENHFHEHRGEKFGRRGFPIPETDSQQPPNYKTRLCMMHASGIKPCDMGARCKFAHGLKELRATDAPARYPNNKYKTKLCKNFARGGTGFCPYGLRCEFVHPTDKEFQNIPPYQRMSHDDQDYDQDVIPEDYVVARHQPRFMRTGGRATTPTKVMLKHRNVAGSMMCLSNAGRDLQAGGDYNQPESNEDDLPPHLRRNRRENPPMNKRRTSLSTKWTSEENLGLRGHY

[15] = Luminescence Cell-Based Dose Retest to Confirm Inhibitors of Cancer Stem Cells. [Related pubchem assays (depositor defined):AID2717, AID2721]; type: functional; settings: Homo sapiens
[16] = viability loss of HMLE_sh_eGFP cells – cell-based, luminescence, counter-screen for HMLE_sh_ECad selective toxicity project, dose response (AID 463074); type: functional, Homo sapiens;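 also: HMLE human mammary epithelial cells expressing control shRNA against eGFP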
[17] = HIV-1 Vif–A3G interaction blockers – biochemical, TR-FRET, GST-Vif 1-94, biotin-A3G peptide, dose response retest, primary screen (AID 1117319); type: functional;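 also: TR-FRET signal of purified GST-Vif binding a biotinylated A3G peptide; inhibitors lower the FRET signal by blocking Vif and A3G binding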
[18] = molecular target: T2, RNA-binding protein pos-1 (Caenorhabditis elegans, UniProt G5EF15); test: disruptors of C. elegans POS-1 RNA interaction – biochemical, fluorescence polarization, dose response (AID 1964);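 also: purified POS-1 fused to maltose binding protein made in E. coli; potency of compounds blocking POS-1 binding to fluorescent RNA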
T2 sequence (G5EF15 whole entry): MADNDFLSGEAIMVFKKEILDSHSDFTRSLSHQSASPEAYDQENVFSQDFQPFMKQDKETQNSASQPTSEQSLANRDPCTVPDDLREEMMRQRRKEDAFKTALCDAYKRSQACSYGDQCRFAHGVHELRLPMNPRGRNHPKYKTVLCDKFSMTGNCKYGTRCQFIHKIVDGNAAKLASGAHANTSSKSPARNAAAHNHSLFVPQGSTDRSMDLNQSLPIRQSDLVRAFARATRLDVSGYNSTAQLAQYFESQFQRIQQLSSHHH

[19] = rise of 4N DNA cells, HeLa – IC50, dose response (AID 1117351); type: functional, cell-based
[20] = Reduced DLD-1 viability, concentration-response, CellTiter-Glo luminescence (AID 1117352); type: functional
[21] = rise of 2N DNA cells, HeLa – IC50, dose response (AID 1117349); type: functional, cell-based
[22] = cytotoxicity toward HT-29 cells – cell-based, CellTiter-Glo luminescence, IC50, dose response (AID 1117330); type: functional
[23] = RKO cell viability reduction, dose response, CellTiter-Glo luminescence (AID 1117322); type: functional
[24] = SNU-C1 cell viability reduction, dose response, CellTiter-Glo luminescence (AID 1117323); type: functional, cell-based
[25] = CellTiter-Glo luminescence survival assay, SW480 colon tumor line, concentration-response curve, half-maximal inhibitory concentration (AID 1117338); type: functional
[26] = cytotoxicity toward Colo320 cells – cell-based, CellTiter-Glo luminescence, IC50, dose response (AID 1117334); type: functional; settings: COLO 320

Chain of 72 kDa type IV collagenase (P08253 whole entry): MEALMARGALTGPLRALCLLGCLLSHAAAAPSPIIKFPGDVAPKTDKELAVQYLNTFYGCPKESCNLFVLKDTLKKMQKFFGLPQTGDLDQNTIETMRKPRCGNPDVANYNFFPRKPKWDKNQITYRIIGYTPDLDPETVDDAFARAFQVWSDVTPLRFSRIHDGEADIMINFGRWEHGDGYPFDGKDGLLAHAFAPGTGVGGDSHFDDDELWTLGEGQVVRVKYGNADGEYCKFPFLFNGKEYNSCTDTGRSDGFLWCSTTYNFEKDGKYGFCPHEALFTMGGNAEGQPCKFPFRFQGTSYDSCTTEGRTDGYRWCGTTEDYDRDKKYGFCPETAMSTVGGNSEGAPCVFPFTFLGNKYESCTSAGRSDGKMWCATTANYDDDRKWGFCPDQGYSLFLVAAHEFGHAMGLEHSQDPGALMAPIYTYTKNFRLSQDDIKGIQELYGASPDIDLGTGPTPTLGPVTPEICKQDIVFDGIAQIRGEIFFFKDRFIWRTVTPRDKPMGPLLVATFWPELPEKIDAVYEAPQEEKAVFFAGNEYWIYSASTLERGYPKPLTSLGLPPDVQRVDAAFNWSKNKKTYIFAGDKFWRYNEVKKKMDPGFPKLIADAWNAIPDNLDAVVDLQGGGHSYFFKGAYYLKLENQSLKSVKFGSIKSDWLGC
Chain of Induced myeloid leukemia cell differentiation protein Mcl-1 (Q07820 whole entry): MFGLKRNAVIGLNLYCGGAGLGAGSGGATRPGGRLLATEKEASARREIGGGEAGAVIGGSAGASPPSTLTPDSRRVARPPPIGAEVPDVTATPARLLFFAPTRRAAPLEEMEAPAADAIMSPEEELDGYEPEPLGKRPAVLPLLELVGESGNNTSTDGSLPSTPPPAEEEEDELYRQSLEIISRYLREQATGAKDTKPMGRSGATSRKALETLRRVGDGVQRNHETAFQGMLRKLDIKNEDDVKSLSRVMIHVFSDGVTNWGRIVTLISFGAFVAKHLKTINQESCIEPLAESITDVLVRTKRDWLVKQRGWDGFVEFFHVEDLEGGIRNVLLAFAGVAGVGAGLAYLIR
Chain of 26S proteasome non-ATPase regulatory subunit 14 (O00487 whole entry): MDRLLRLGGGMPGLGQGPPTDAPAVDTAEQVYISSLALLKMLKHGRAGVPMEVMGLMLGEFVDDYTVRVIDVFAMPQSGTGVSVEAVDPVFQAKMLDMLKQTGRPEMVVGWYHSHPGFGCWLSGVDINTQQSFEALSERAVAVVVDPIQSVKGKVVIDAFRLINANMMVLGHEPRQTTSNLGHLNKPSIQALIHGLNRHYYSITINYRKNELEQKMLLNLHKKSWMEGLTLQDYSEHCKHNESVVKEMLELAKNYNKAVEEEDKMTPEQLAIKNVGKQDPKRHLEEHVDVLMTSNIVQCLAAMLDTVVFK
Chain of Bcl-2-like protein 1 (Q07817 whole entry): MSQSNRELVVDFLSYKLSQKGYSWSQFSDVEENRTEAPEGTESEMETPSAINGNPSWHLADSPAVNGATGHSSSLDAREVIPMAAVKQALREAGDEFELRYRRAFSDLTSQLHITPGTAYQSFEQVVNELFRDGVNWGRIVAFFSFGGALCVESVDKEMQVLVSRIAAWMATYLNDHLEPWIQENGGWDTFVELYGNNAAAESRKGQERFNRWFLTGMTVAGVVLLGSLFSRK

Structure (SMILES): CC(C)Cc1ccc(/C=C/C(=O)N2CCOCC2)cc1
- EC50 [1]: 0.25 µM (active)
- EC50 (H4): 0.843 µM (active)
- EC50 [2]: 0.682 µM (active)
- EC50 [3]: < 0.1 µM (inconclusive)
- EC50 [4]: 0.374 µM (active)

Structure (SMILES): COc1ccc(C#Cc2ccc3c(c2)O[C@@H](CN(C)C(=O)Nc2cccc(OC)c2)[C@@H](C)CN([C@H](C)CO)S3(=O)=O)cc1
- AC50 [5]: 0.473 µM (active)
- AC50 [6]: 0.466 µM (active)
- AC50 [7]: 0.49 µM (active)
- AC50 [8]: 0.494 µM (active)
- AC50 [9]: 1.07 µM (active)

Structure (SMILES): COc1cc(NC(=O)c2cc3nc(C)cc(C)n3n2)c(OC)cc1Cl
- EC50 [1]: 0.392 µM (active)
- EC50 (H4): < 0.1 µM (active)
- EC50 [2]: 0.389 µM (active)
- EC50 [3]: 0.278 µM (active)
- EC50 [4]: 0.323 µM (active)

Structure (SMILES): CCOC(=O)c1s/c(=N\C(=O)/C=C/c2cccs2)n(C)c1C
- EC50 [1]: 0.315 µM (active)
- EC50 (H4): 1.08 µM (active)
- EC50 [2]: 2.23 µM (active)
- EC50 [3]: < 0.1 µM (inconclusive)
- EC50 [4]: > 12 µM (not active)

Structure (SMILES): O=C(Cn1cnc2sc(-c3ccccc3)cc2c1=O)NCc1ccco1
- IC50 [10]: 5.16 µM (active)
- IC50 (Bcl-2-like protein 1): > 109 µM (not active)

Structure (SMILES): CCOc1ccccc1N1C(=O)NC(=O)/C(=C\Nc2ccc(N(CC)CC)cc2)C1=O
- IC50 [11]: > 100 µM (inactive)
- IC50 [12]: 18.3 µM (active)
- IC50 (Prothrombin): 13.4 µM (active)
- CC50 [13]: 26 µM (active)
- EC50 [14]: > 300 µM (inconclusive)
- AC50 [15]: 40.9 µM (active)
- AC50 [16]: 51 µM (active)
- IC50 [17]: > 57.5 µM (active)
- EC50 [18]: > 300 µM (not active)

Structure (SMILES): O=c1[nH]cc(F)c(=O)[nH]1 [FLUOROURACIL]
- IC50 [19]: > 10 µM (inactive)
- IC50 [20]: > 20 µM (inactive)
- IC50 [21]: > 10 µM (inactive)
- IC50 [22]: > 20 µM (inactive)
- IC50 [23]: > 20 µM (inactive)
- IC50 [24]: > 20 µM (inactive)
- IC50 [25]: > 20 µM (inactive)
- IC50 [26]: > 20 µM (inactive)

Structure (SMILES): O=S(=O)(Nc1ccc(N2CCOCC2)cc1)c1ccccc1
- IC50 [17]: > 100 µM (active)
